Measurements published in the NIST ThermoML archive (doi:10.1016/j.fluid.2007.06.001).

Assays:
[1] = excess molar enthalpy (molar enthalpy of mixing); xn = mol fraction of the nth substance listed; settings: Liquid
[2] = Liquid

CCCC[n+]1ccn(C)c1.O=S(=O)([N-]S(=O)(=O)C(F)(F)F)C(F)(F)F + CC1CCCCC1
[1], 363.15 K, 101.3 kPa
Settings	excess molar enthalpy [kcal/mol]
x2 = 0.1067	0.111
x2 = 0.2014	0.148
x2 = 0.2449	0.143
x2 = 0.286	0.137
x2 = 0.3621	0.123
x2 = 0.4308	0.111
x2 = 0.4932	0.099
x2 = 0.6022	0.0773
x2 = 0.6942	0.0587
x2 = 0.773	0.0439
x2 = 0.872	0.0258

CCCCCC[n+]1ccn(C)c1.O=S(=O)([N-]S(=O)(=O)C(F)(F)F)C(F)(F)F + CC(C)=O
[1], 353.15 K, 101 kPa
Settings	excess molar enthalpy [kcal/mol]
x2 = 0.02	-0.0107
x2 = 0.0499	-0.0253
x2 = 0.0999	-0.0512
x2 = 0.1498	-0.0795
x2 = 0.1998	-0.106
x2 = 0.2997	-0.158
x2 = 0.3996	-0.202
x2 = 0.4996	-0.239
x2 = 0.5996	-0.26
x2 = 0.6997	-0.268
x2 = 0.7998	-0.25
x2 = 0.8999	-0.182
x2 = 0.9499	-0.117

CCCC[n+]1ccn(C)c1.O=S(=O)([N-]S(=O)(=O)C(F)(F)F)C(F)(F)F + CC(C)=O
[1], 353.15 K, 101 kPa
Settings	excess molar enthalpy [kcal/mol]
x2 = 0.05	-0.031
x2 = 0.0999	-0.0608
x2 = 0.1499	-0.092
x2 = 0.1999	-0.122
x2 = 0.2998	-0.175
x2 = 0.4498	-0.248
x2 = 0.5998	-0.291
x2 = 0.6998	-0.296
x2 = 0.7999	-0.265
x2 = 0.8499	-0.235
x2 = 0.8999	-0.186
x2 = 0.95	-0.118

CCCCCC[n+]1ccn(C)c1.O=S(=O)([N-]S(=O)(=O)C(F)(F)F)C(F)(F)F + CCC(C)=O
[1], 353.15 K, 101 kPa
Settings	excess molar enthalpy [kcal/mol]
x2 = 0.02	-0.0125
x2 = 0.05	-0.0296
x2 = 0.1	-0.0578
x2 = 0.15	-0.0902
x2 = 0.2001	-0.12
x2 = 0.3001	-0.17
x2 = 0.4001	-0.215
x2 = 0.5001	-0.25
x2 = 0.6001	-0.274
x2 = 0.7001	-0.278
x2 = 0.8001	-0.255
x2 = 0.9	-0.181
x2 = 0.95	-0.114

CCCC[n+]1ccn(C)c1.O=S(=O)([N-]S(=O)(=O)C(F)(F)F)C(F)(F)F + CCC(C)=O
[1], 353.15 K, 101 kPa
Settings	excess molar enthalpy [kcal/mol]
x2 = 0.0508	-0.0292
x2 = 0.1015	-0.0592
x2 = 0.1521	-0.0906
x2 = 0.2026	-0.118
x2 = 0.3035	-0.172
x2 = 0.4541	-0.239
x2 = 0.6039	-0.282
x2 = 0.7034	-0.289
x2 = 0.8026	-0.259
x2 = 0.8521	-0.229
x2 = 0.9015	-0.181
x2 = 0.9508	-0.112

CCCCCC[n+]1ccn(C)c1.O=S(=O)([N-]S(=O)(=O)C(F)(F)F)C(F)(F)F + CCCCCC
[1], 363.15 K, 101 kPa
Settings	excess molar enthalpy [kcal/mol]
x2 = 0.02	0.0124
x2 = 0.0501	0.035
x2 = 0.1002	0.073
x2 = 0.1503	0.104
x2 = 0.2003	0.123
x2 = 0.3003	0.126
x2 = 0.4004	0.107
x2 = 0.5004	0.0878
x2 = 0.6004	0.0711
x2 = 0.7003	0.0511
x2 = 0.8002	0.0328
x2 = 0.9001	0.0157
x2 = 0.9501	0.00801

CCCC[n+]1ccn(C)c1.O=S(=O)([N-]S(=O)(=O)C(F)(F)F)C(F)(F)F + CCCCCC
[1], 363.15 K, 101.3 kPa
Settings	excess molar enthalpy [kcal/mol]
x2 = 0.02	0.0134
x2 = 0.0501	0.0353
x2 = 0.1002	0.0689
x2 = 0.1503	0.0949
x2 = 0.2003	0.109
x2 = 0.3004	0.0941
x2 = 0.5004	0.0662
x2 = 0.7004	0.038
x2 = 0.9002	0.0116

CCn1cc[n+](C)c1.O=S(=O)([N-]S(=O)(=O)C(F)(F)F)C(F)(F)F + CCCCCC
[1], 353.15 K, 101.3 kPa
Settings	excess molar enthalpy [kcal/mol]
x2 = 0.0239	0.0297
x2 = 0.0472	0.0535
x2 = 0.07	0.066
x2 = 0.0923	0.0787
x2 = 0.1354	0.0756
x2 = 0.2162	0.0688
x2 = 0.3916	0.0521
x2 = 0.6588	0.0288
x2 = 0.8528	0.0125

CCn1cc[n+](C)c1.O=S(=O)([N-]S(=O)(=O)C(F)(F)F)C(F)(F)F + CCCO
[1], 323.15 K, 101.3 kPa
Settings	excess molar enthalpy [kcal/mol]
x2 = 0.0418	0.0767
x2 = 0.0812	0.15
x2 = 0.1536	0.27
x2 = 0.277	0.451
x2 = 0.4629	0.626
x2 = 0.6741	0.623
x2 = 0.8082	0.488
x2 = 0.9602	0.151

CCCCCC[n+]1ccn(C)c1.O=S(=O)([N-]S(=O)(=O)C(F)(F)F)C(F)(F)F + CCO
[1], 353.15 K, 101 kPa
Settings	excess molar enthalpy [kcal/mol]
x2 = 0.0506	0.0647
x2 = 0.1012	0.132
x2 = 0.1517	0.202
x2 = 0.2022	0.269
x2 = 0.4534	0.51
x2 = 0.6033	0.551
x2 = 0.9012	0.257
x2 = 0.9506	0.138

CCn1cc[n+](C)c1.O=S(=O)([N-]S(=O)(=O)C(F)(F)F)C(F)(F)F + CCO
[1], 323.15 K, 101.3 kPa
Settings	excess molar enthalpy [kcal/mol]
x2 = 0.0529	0.0909
x2 = 0.1017	0.163
x2 = 0.1885	0.297
x2 = 0.3291	0.463
x2 = 0.5246	0.586
x2 = 0.7259	0.525
x2 = 0.8436	0.384
x2 = 0.9687	0.105

CCCCCC[n+]1ccn(C)c1.O=S(=O)([N-]S(=O)(=O)C(F)(F)F)C(F)(F)F + Cc1ccccc1
[1], 363.15 K, 101 kPa
Settings	excess molar enthalpy [kcal/mol]
x2 = 0.0501	-0.0218
x2 = 0.1001	-0.0441
x2 = 0.1501	-0.0645
x2 = 0.2002	-0.0866
x2 = 0.3002	-0.125
x2 = 0.4503	-0.169
x2 = 0.6003	-0.183
x2 = 0.7002	-0.164
x2 = 0.8002	-0.116
x2 = 0.8501	-0.0868
x2 = 0.9001	-0.0571
x2 = 0.9501	-0.0288

CCCC[n+]1ccn(C)c1.O=S(=O)([N-]S(=O)(=O)C(F)(F)F)C(F)(F)F + Cc1ccccc1
[1], 363.15 K, 101 kPa
Settings	excess molar enthalpy [kcal/mol]
x2 = 0.0653	-0.023
x2 = 0.1255	-0.0435
x2 = 0.1811	-0.0624
x2 = 0.2325	-0.0772
x2 = 0.2803	-0.0908
x2 = 0.3249	-0.101
x2 = 0.4054	-0.122
x2 = 0.4761	-0.133
x2 = 0.5389	-0.139
x2 = 0.6451	-0.135
x2 = 0.7317	-0.108
x2 = 0.8035	-0.0824
x2 = 0.8911	-0.0447
x2 = 0.9608	-0.0171

CCCCCC[n+]1ccn(C)c1.O=S(=O)([N-]S(=O)(=O)C(F)(F)F)C(F)(F)F + c1ccccc1
[1], 363.15 K, 101 kPa
Settings	excess molar enthalpy [kcal/mol]
x2 = 0.0854	-0.0378
x2 = 0.1608	-0.0698
x2 = 0.2279	-0.0993
x2 = 0.288	-0.12
x2 = 0.3421	-0.142
x2 = 0.3912	-0.163
x2 = 0.4765	-0.191
x2 = 0.5482	-0.21
x2 = 0.6094	-0.214
x2 = 0.7082	-0.206
x2 = 0.7845	-0.183
x2 = 0.8452	-0.138
x2 = 0.9161	-0.0683
x2 = 0.9704	-0.0212

CCCC[n+]1ccn(C)c1.O=S(=O)([N-]S(=O)(=O)C(F)(F)F)C(F)(F)F + c1ccccc1
[1], 101.3 kPa
Settings	excess molar enthalpy [kcal/mol]
363.15 K, x2 = 0.0498	-0.0235
363.15 K, x2 = 0.0997	-0.0451
363.15 K, x2 = 0.1495	-0.0678
363.15 K, x2 = 0.1994	-0.0875
363.15 K, x2 = 0.2992	-0.127
363.15 K, x2 = 0.4491	-0.176
363.15 K, x2 = 0.5991	-0.206
363.15 K, x2 = 0.6992	-0.198
363.15 K, x2 = 0.7994	-0.147
363.15 K, x2 = 0.8495	-0.112
363.15 K, x2 = 0.8997	-0.0716
363.15 K, x2 = 0.9498	-0.0353
413.15 K, x2 = 0.1462	-0.0688
413.15 K, x2 = 0.2087	-0.0954
413.15 K, x2 = 0.2654	-0.12
413.15 K, x2 = 0.3172	-0.142
413.15 K, x2 = 0.3647	-0.166
413.15 K, x2 = 0.4485	-0.196
413.15 K, x2 = 0.5202	-0.212
413.15 K, x2 = 0.5823	-0.22
413.15 K, x2 = 0.6844	-0.217
413.15 K, x2 = 0.7648	-0.186
413.15 K, x2 = 0.8299	-0.142
413.15 K, x2 = 0.907	-0.0792
413.15 K, x2 = 0.967	-0.0313

CCCCCCCCC [nonane]
Settings	vapor or sublimation pressure [kPa]
[2], 353.15 K	9.65

C=CCCCCCC [oct-1-ene]
Settings	vapor or sublimation pressure [kPa]
[2], 363.15 K	38.51

C=CCCCCCC [oct-1-ene] + CCCCCC[n+]1ccn(C)c1.O=S(=O)([N-]S(=O)(=O)C(F)(F)F)C(F)(F)F
[1], 413.15 K, 101 kPa
Settings	excess molar enthalpy [kcal/mol]
x1 = 0.0504	0.0404
x1 = 0.0982	0.0729
x1 = 0.1437	0.102
x1 = 0.1869	0.131
x1 = 0.2281	0.142
x1 = 0.2675	0.141
x1 = 0.3409	0.13
x1 = 0.4082	0.116
x1 = 0.47	0.103
x1 = 0.5797	0.0815
x1 = 0.6742	0.0617
x1 = 0.7563	0.0472
x1 = 0.8613	0.0272

CCCCCCCC [octane]
Settings	vapor or sublimation pressure [kPa]
[2], 353.15 K	23.16

CCC(=O)CC [pentan-3-one] + CCCCCC[n+]1ccn(C)c1.O=S(=O)([N-]S(=O)(=O)C(F)(F)F)C(F)(F)F
[1], 353.15 K, 101 kPa
Settings	excess molar enthalpy [kcal/mol]
x1 = 0.0503	-0.0247
x1 = 0.1005	-0.0527
x1 = 0.1507	-0.0794
x1 = 0.2009	-0.107
x1 = 0.3011	-0.156
x1 = 0.4013	-0.198
x1 = 0.5013	-0.24
x1 = 0.6013	-0.266
x1 = 0.7011	-0.276
x1 = 0.8009	-0.249
x1 = 0.9005	-0.177
x1 = 0.9503	-0.109
